The results in this text go back to patent US6893829B2, “Human leukocyte 12-lipoxygenase and its role in the pathogenesis of disease states” (City of Hope, priority 1992, dated 2005).

Test [1] concerns leukocyte 12-LO protein in HSMC. Kind of test: 12-LO protein expression in HSMC (Western immunoblotting). The format is cell-based, human. The method, then: FIGS. 4A and 4B illustrate the regulation of leukocyte 12-LO protein expression by AII in HSMC. FIG. 4A is an immunoblot showing regulation by AII. FIG. 4B is a bar graph representation of densitometric analysis of immunoblot in FIG. 4A. Cells were grown in medium 199 containing 20% FBS and serum-depleted for 24 hours by placing in medium 199 containing 0.4% FBS and 0.2% BSA. Cells were treated with AII at the concentration of 2×10^−7 mol/L for 24 to 48 hours. Cells were washed with PBS and harvested by scraping. Cell pellets were lysed and cytosol fractions were electrophoresed. […]
SDS polyacrylamide gel electrophoresis (10% running gel, 4% stacking gel) was performed according to the method of Laemmli (24). […] Nonspecific binding was evaluated using normal rabbit serum. Western blots were quantitated using a computerized video densitometer (Applied Imagining, Santa Clara, Calif.; Lynx DNA vision) and values expressed as arbitrary absorbance units.
To examine whether AII induces the 12-LO enzyme expression in HSMC, cells were treated with AII at the concentration of 2×10^−7 mol/L for 24 or 48 hours. […] A distinct band was detected with a molecular weight of nearly 72 kD which is the reported molecular weight of the porcine leukocyte-type of 12-LO (FIG. 4). […]
(In general: In western blotting, separated proteins are transferred to a membrane and probed.)

Another test has as its system ERK. Kind of test: ERK activity in CHO-AT1a cells. It is filed as cell-based, Chinese hamster. Particulars: AII 10^−7M. The method, then: ERK activity was evaluated by the substrate-SDS-polyacrylamide gel method described in Anal. Biochem., 183:139-143 (1989). Confluent cells in […] were made quiescent in serum-free medium and then treated with agonists for various time periods. The cells were then lysed in lysis buffer (1% NP40, 1% sodium deoxycholate, 0.1% SDS, 100 mM NaCl, 50 mM Tris, 10 mM EDTA, 1 mM EGTA, aprotinin, […], 0.1 mM PMSF and 1 mM sodium orthovanadate, pH 7.4). Lysates were centrifuged to pellet nuclei and the cell extracts ([…]) were subjected to electrophoresis on SDS-polyacrylamide gels (10%) containing myelin basic protein (0.5 mg/ml) as an ERK substrate. The SDS was then washed, followed by denaturation, renaturation and protein phosphorylation on the gel with [^32P] ATP.
It has been discovered that the administration of AII results in biphasic activation of MAP kinase (all of the MAP kinase experiments were conducted in CHO-AT1a cells—AII receptor AT1a cDNA transfected Chinese hamster ovary cells).

Test [2] concerns VEGF in vascular smooth muscle cells (VSMC). Kind of test: VEGF protein, mRNA and secretion in VSMC (Western, Northern, EIA). The format is cell-based, Porcine and human. The method, then:
In addition to the work reflected in FIGS. 8-10, it has now been discovered that AII, 12-HETE and hyperglycemia (HG) increase VEGF production in vascular smooth muscle cells (VSMC). Porcine and human VSMC were cultured for at least two passages under normal glucose (NG, 5.5 mM) or under HG conditions. VEGF protein expression was determined by Western blotting and VEGF mRNA by Northern blots. HG alone increased the level of VEGF mRNA (2.8-fold) and protein (3.2-fold). […] In addition, HG increased the secretion of VEGF into the medium as measured by a specific EIA (56.2±4 ng/ml NG vs 73±5 HG, p<0.02).

The mark [3] stands for this setting: AII 10^−7M, 4 hours, cells cultured in HG.

With “Angiotensin II (DRVYIHPF; Angiotensin-2; UniProt P01019 25-32, looked up) [AII, peptide hormone, added to cells as stimulus]”, in test [1] (AII 2×10^−7 mol/L, 24 hour, serum free media), the “increase in 12-LO protein expression” value is recorded as “seven”. In addition, the 12-LO expression induction in test [1] (AII, 48 hours, data not shown) is given as 4-7 fold. The “stimulation of ERK activity, later peak” value in the test with ERK (3-4.5 hours) was 1.5-3 fold. Also, in the test with ERK (5 minutes), the “stimulation of ERK activity, first peak” value is listed as 2-6 fold. The “increase in VEGF secretion (EIA)” value in test [2] stood at 1.24 fold. For the same substance, in test [2] (setting [3]), the “VEGF mRNA expression increase” value amounted to 1.4 fold and the “VEGF protein expression increase” value was found to be 2.2 fold.
